Experimental data taken from publication PMC11719512, “Exploring the Binding Mechanism of ADGRG2 Through Metadynamics and Biochemical Analysis” (International Journal of Molecular Sciences, 2024).

What was measured:
ADGRG2 [1] = details: Stachel-derived peptides, earlier work; ref [8],[11]; cited from earlier work
Description: Stachel (sequence: TSFGILLDLSRTSLP, with individual residues numbered from ss01 to ss15, where “ss” denotes Stachel sequence) is a key functional element of ADGRG2, playing a critical role in regulating the conformation and function of the receptor [8]. The Stachel sequence plays a pivotal role in receptor activation by mediating ligand binding and initiating the conformational changes required for signal transduction, highlighting its biological significance. In previous studies, the wild-type ADGRG2 Stachel sequence-derived peptidic agonist, VPM, was found t ... || Figure 1 Structural and binding analysis of ADGRG2 with agonists and antagonists. (A) Structure of ADGRG2, highlighting key domains involved in ligand binding. Identified agonists (DHEA, DHEAS, IP15) and antagonists (DOC, F601D, F601E) are labeled. […] (B) Schematic representation of metadynamics simulations and ligand binding assay conducted to investigate the binding mechanisms of antagonists F601D, F601E, and DOC to ADGRG2. (C) Structural representation of ADGRG2 in complex wi ...

ADGRG2 [2] = experiment: cAMP accumulation assay (GloSensor) with wild-type ADGRG2 and mutants; type: cell-based; details: HEK293, GloSensor; agonist IP15 alone, then with antagonist; mean ± SEM, n = 3
Experimental: To assess the cAMP accumulation induced by receptor activation, HEK293 cells were transfected with plasmids for wild-type ADGRG2 or its mutants (ADGRG2-T624A, ADGRG2-C628A, ADGRG2-N668A, ADGRG2-Y758A, ADGRG2-K760A, ADGRG2-D768A, ADGRG2-N773A, ADGRG2-N775A, ADGRG2-N849A, ADGRG2-N860A) alongside the GloSensor plasmid or an empty vector (pcDNA3.1). Following a 24-h incubation at 37 °C with 5% CO2, the transfected cells were plated at a density of 4 × 10^4 per well in 96-well plates and incubated for an additional 24 h. The cells were then pre-treated with serum-free medium containing 5% (v/v) GloSensor cAMP reagent stock solution for 2 h. cAMP signals induced by IP15 were measured immediately after adding the agonists. Luminescence was recorded for at least 20 min per well, and the data were analyzed using sigmoidal dose–response functions in GraphPad Prism v.9.0.

## IS 4PH GILLDLSRTSLP [IP15]
ADGRG2 [1]
  agonistic activity / receptor state stabilised: superior agonistic activity
ADGRG2 [2]
  IP15-induced cAMP accumulation, effect of ADGRG2 mutations: the effects of these mutations are specific to the antagonists and not due to disruption of interactions between receptor residues that contribute to agonist-induced activation
